Measurements from patent publication US8759405B2, “Stevia extract or steviol for hair care” (DSM IP Assets B.V., priority 2009, dated 2014).
Entries after “also recorded” stand apart in the source; their conditions may differ.

Tests used:
human hair follicle = assay: mRNA level of marker genes in human hair follicle by RT-PCR; type: cell-based
Description: Human hair follicles were obtained from human skin fragments (obtained by plastic surgery) and grown in supplemented William's E medium supplemented with penicillin/streptomycin, L-glutamine (2 mM/L), insulin (10 μg/mL and hydrocortisone (8 nM/L). Hair follicle growth was assessed via length measurements (days 0, 4, and 7). Triiodothyronine (T3, 30 μM/L) was used as positive control. […] On day 7, RNA was extracted from hair follicles that had been subjected to different treatments (control, T3, steviol). RNA was processed for Affymetrix® DNA microarray analysis in order to identify effects of compounds on gene expression. Where appropriate, RNA expression levels were further quantified by RT-PCR using the ABI 7900 Taqman instrumentation. […] The mRNA level of some marker genes involved in growth and/or differentiation of cells in the skin and in hair follicle was further determined by RT-PCR and is shown in Table 4.

Human hair follicles [1] = assay: Growth of human hair follicle (length measurements); type: cell-based
Description: (§1) Human hair follicles were obtained from human skin fragments (obtained by plastic surgery) and grown in supplemented William's E medium supplemented with penicillin/streptomycin, L-glutamine (2 mM/L), insulin (10 μg/mL and hydrocortisone (8 nM/L). Hair follicle growth was assessed via length measurements (days 0, 4, and 7). Triiodothyronine (T3, 30 μM/L) was used as positive control. The effect of steviol (at 0.625-5 μg/mL) was tested in parallel. On day 7, RNA was extracted from hair follicles that had been subjected to different treatments (control, T3, steviol). RNA was processed for Affymetrix® DNA microarray analysis in order to identify effects of compounds on gene expression. Where appropriate, RNA expression levels were further quantified by RT-PCR using the ABI 7900 Taqman instrumentation.

aged C57B1/6J mice = assay: Chronic steviol treatment, subjective rating of fur and skin condition pre- and post-treatment; type: in vivo; settings: 120 mg/kg/d in diet, 6 weeks, pre- vs post-treatment
Description: FIG. 2 Effects of chronic steviol treatment (120 mg/kg, p.o., 6 weeks) on (a) fur colour and (b) hair loss in aged C57B1/6J mice. […] [table] Female, aged, C57B1/6J mice (22-24 months of age) were assessed for their fur quality at the start and end of a six-week study. Prior to commencement of treatment, photographs were taken of all mice whilst under light anaesthesia (2.2-2.4% isofluorane). Mice were then fed either placebo diet or diet supplemented with steviol (120 mg/kg/d) for six weeks. At the end of the six week treatment phase, mice were again anaesthetised and further photographs were taken. Eleven participants with extensive experience of performing experimental studies using mice were asked to complete the same questionnaire (see Table 1), to enable subjective rating of a number of parameters of fur quality and of the appearance of skin wounds, by assessing the photographs taken before and after treatment. Statistical analyses were performed using Prism 5 (GraphPad Software, La Jolla, Calif., USA) and comprised two-way ANOVA (test factors: Time and Treatment), followed by Bonferroni post-hoc tests, where appropriate.

Human hair follicles [2] = assay: Gene expression in human hair follicles by DNA microarray analysis; type: cell-based
Description: as §1, with “instrumentation. […] Global effects of steviol on gene expression were determined by transcriptomics i.e. DNA microarray analysis. The obtained data were processed with Genedata software tools. […] Thus another aspect of this invention is a method of up-regulating at least one of the genes listed in Table 3 comprising administering steviol and observing a hair growth effect.” for “instrumentation.”

whole mouse skin = assay: Gene expression in whole mouse skin by quantitative RT-PCR after dietary supplementation; type: in vivo, mice; settings: eight weeks
Description: The effect of steviol on gene expression was also analysed in whole mouse skin (also containing hair follicles). To this aim, mice were fed a normal diet or a diet supplemented with steviol (see also relevant data above). After eight weeks of supplementation, mice were sacrificed and skin was isolated and freed from hair. Quantitative RT-PCR was performed for selected genes using the same technology as described for hair follicles (see above). Remarkably, we identified changes in expression levels of some genes that are involved in skin physiology and homeostasis.

## C=C1C[C@@]23CC[C@H]4[C@@](C)(CCC[C@@]4(C)C(=O)O)[C@@H]2CC[C@]1(O)C3 [Steviol, steviol]
Human hair follicle; 0.625 μg/mL
  Fold changes (versus control): Integrin alpha-6: 1.62 ± 0.06 fold
Human hair follicle; 1.25 μg/mL
  Fold changes (versus control): COX-2: 0.46 ± 0.17 fold
  Fold changes (versus control): HO-1: 0.64 ± 0.08 fold
  Fold changes (versus control): Involucrin: 0.51 ± 0.22 fold
Human hair follicle; 10 μg/mL
  Fold changes (versus control): Keratin 6: 1.33 ± 0.11 fold
Human hair follicles [1]; 0.625 μg/mL
  Growth (% of control): 122 % of control
Human hair follicles [1]; 1.25 μg/mL
  Growth (% of control): 121 % of control
Human hair follicles [1]; 2.5 μg/mL
  Growth (% of control): 113 % of control
Human hair follicles [1]; 5 μg/mL
  Growth (% of control): 117 % of control
Human hair follicles [1]; 0.625-5 μg/mL
  elongation of hair follicles: dose-dependently favoured the elongation of hair follicles
Aged C57B1/6J mice
  fur colour (greying; subjective rating score): significantly improved hair colour (i.e. reduced greying); also recorded: significantly improved fur colour
  hair loss (subjective rating score): significantly improved (i.e. reduced) hair loss
Aged C57B1/6J mice; listed as steviol
  hair loss (subjective rating score): significant reduction of hair loss
Human hair follicles [2]; day 7, microarray
  Ratio of steviol-treated/untreated: CASP8 and FADD-like apoptosis regulator: 2.58
  Ratio of steviol-treated/untreated: Chemokine (C-X-C motif) ligand 12 (stromal cell-derived factor 1): 2.22
  Ratio of steviol-treated/untreated: Collagen, type IV, alpha 6: 2.04
  Ratio of steviol-treated/untreated: Fibroblast growth factor 7 (keratinocyte growth factor): 2.91
  Ratio of steviol-treated/untreated: Insulin-like growth factor 1 receptor: 2.00
  Ratio of steviol-treated/untreated: Integrin, alpha 6: 2.15
  Ratio of steviol-treated/untreated: TIMP metallopeptidase inhibitor 3: 2.32
  Ratio of steviol-treated/untreated: Topoisomerase (DNA) II alpha 170 kDa: 2.45
  Ratio of steviol-treated/untreated: Transmembrane protein with EGF-like and two follistatin-like domains 2: 3.10
Human hair follicles [2]; microarray, Genedata pathway mapping
  biological pathways whose gene expression is modulated: modulated gene expression of the pathways of epidermal development, ectoderm development and keratinocyte differentiation with a high statistical significance
Whole mouse skin
  % of control (based on fold-change): CXC10: 132 ± 50 % of control
  % of control (based on fold-change): IL-6: 130 ± 31 % of control
  % of control (based on fold-change): MMP-8: 73 ± 23 % of control
  % of control (based on fold-change): MMP-13: 53 ± 9 % of control
  % of control (based on fold-change): PPAR-δ: 60 ± 37 % of control
